Measured values as given in patent publication US20100197650A1, “COMPOSITIONS AND METHODS OF TREATMENT COMPRISING CEFTAROLINE” (FOREST LABORATORIES HOLDINGS LTD., priority 2008, published 2010).
Values after ≈ are worked out from the molar mass of the structure shown. Read-outs that look alike come from different tables or passages of the source.

Key:
Type in all cases: cell-based
Streptococcus pneumoniae = experiment: MIC, broth microdilution (Example 1); details: Streptococcus pneumoniae, read-out: MIC
In short: (§1)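 CLSI broth microdilution with seven 2-fold dilutions per agent made in DMSO, the drug making up 5% of final well volume. H. influenzae was tested in Haemophilus Test Medium, S. pneumoniae in Mueller Hinton II broth with 2% lysed horse blood, and the others in Mueller Hinton II broth. Incubation was 35 °C for about 20 h, with visual reading.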

Acinetobacter baumannii = experiment: MIC, broth microdilution (Example 1)
In short: (§2)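 Following the CLSI M7-A7 microdilution standard, each agent alone was tested across seven 2-fold steps. The drugs were in DMSO, and the medium was HTM, MH II broth, or MH II broth with 2% lysed horse blood depending on species. MIC was read visually after ~20 h at 35 °C.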

Klebsiella pneumoniae = experiment: MIC, broth microdilution (Example 1)
In short: as §1

Pseudomonas aeruginosa = experiment: MIC, broth microdilution (Example 1)
In short: as §1

Haemophilus influenzae = experiment: MIC, broth microdilution (Example 1)
In short: as §1

Enterococcus faecalis = experiment: MIC, broth microdilution (Example 1)
In short: as §2

Staphylococcus aureus = experiment: MIC, broth microdilution (Example 1)
In short: as §2

Streptococcus pyogenes = experiment: MIC, broth microdilution (Example 1); details: Streptococcus pyogenes, read-out: MIC
In short: as §2

[1] = system: ESBL-producing Klebsiella pneumoniae; experiment: Susceptibility testing MIC/MBC, broth microdilution (Example 2); details: for MBC / MIC: Klebsiella pneumoniae; for MBC: read-out: MBC; for MIC: read-out: MIC
[2] = K. pneumonia (10) clinical isolates

CCO/N=C(\C(=O)N[C@@H]1C(=O)N2C(C(=O)[O-])=C(Sc3nc(-c4cc[n+](C)cc4)cs3)CS[C@H]12)c1nsc(N)n1 [Ceftaroline]
MIC (Streptococcus pneumoniae; PRSP, S. pneumoniae 0876 (PRSP)): 0.12 µg/mL
MIC (Streptococcus pneumoniae; PRSP, S. pneumoniae 0877 (PRSP)): 0.12 µg/mL
MIC (Streptococcus pneumoniae; PRSP, S. pneumoniae 0880 (PRSP)): 0.12 µg/mL
MIC (Streptococcus pneumoniae; PRSP, S. pneumoniae 0884 (PRSP)): 0.12 µg/mL
MIC (Streptococcus pneumoniae; S. pneumoniae 0869 (PSSP)): 0.008 µg/mL
MIC (Acinetobacter baumannii; A. baumannii 2602): 2 µg/mL
MIC (Acinetobacter baumannii; Acinetobacter baumannii, A. baumannii 2601, read-out: MIC): 2 µg/mL
MIC (Klebsiella pneumoniae; K. pneumoniae 1461): 0.5 µg/mL
MIC (Klebsiella pneumoniae; Klebsiella pneumoniae, K. pneumoniae 1340, read-out: MIC): 0.12 µg/mL
MIC (Klebsiella pneumoniae; Klebsiella pneumoniae, K. pneumoniae 1461, read-out: MIC): 0.25 µg/mL
MIC (Klebsiella pneumoniae; Klebsiella pneumoniae, K. pneumoniae 1468 (ESBL), read-out: MIC): 32 µg/mL
MIC (Pseudomonas aeruginosa; P. aeruginosa 2555): 32 µg/mL
MIC (Pseudomonas aeruginosa; P. aeruginosa 2559): 16 µg/mL
MIC (Haemophilus influenzae; H. influenzae 1224): 0.12 µg/mL
MIC (Haemophilus influenzae; H. influenzae 2797 (BLNAR)): 0.12 µg/mL
MIC (Haemophilus influenzae; Haemophilus influenzae, H. influenzae 1224, read-out: MIC): 0.06 µg/mL
MIC (Haemophilus influenzae; Haemophilus influenzae, H. influenzae 2797 (BLNAR), read-out: MIC): 0.06 µg/mL
MIC (Haemophilus influenzae; Haemophilus influenzae, H. influenzae 2798 (BLNAR), read-out: MIC): 0.03 µg/mL
MIC (Haemophilus influenzae; Haemophilus influenzae, H. influenzae 2799 (BLNAR), read-out: MIC): 0.03 µg/mL
MIC (Enterococcus faecalis; E. faecalis 0796 (VSE)): 4 µg/mL
MIC (Enterococcus faecalis; Enterococcus faecalis, E. faecalis 0795 (VSE), read-out: MIC): 8 µg/mL
MIC (Enterococcus faecalis; Enterococcus faecalis, E. faecalis 0796 (VSE), read-out: MIC): 2 µg/mL
MIC (Enterococcus faecalis; Enterococcus faecalis, VRE, E. faecalis 0847 (VRE), read-out: MIC): 2 µg/mL
MIC (Enterococcus faecalis; Enterococcus faecalis, VRE, E. faecalis 0849 (VRE), read-out: MIC): 4 µg/mL
MIC (Staphylococcus aureus; S. aureus 0765 (MRSA)): 2 µg/mL
MIC (Staphylococcus aureus; Staphylococcus aureus, MRSA, S. aureus 0765 (MRSA), read-out: MIC): 1 µg/mL
MIC (Staphylococcus aureus; Staphylococcus aureus, MRSA, S. aureus 2053 (MRSA), read-out: MIC): 2 µg/mL
MIC (Staphylococcus aureus; Staphylococcus aureus, MRSA, S. aureus 2202 (CA-MRSA), read-out: MIC): 1 µg/mL
MIC (Staphylococcus aureus; Staphylococcus aureus, MRSA, S. aureus 2296 (CA-MRSA), read-out: MIC): 1 µg/mL
MIC (Staphylococcus aureus; Staphylococcus aureus, MSSA, S. aureus 0753 (MSSA), read-out: MIC): 0.5 µg/mL
MIC (Staphylococcus aureus; Staphylococcus aureus, MSSA, S. aureus 2063 (MSSA), read-out: MIC): 0.5 µg/mL
MIC (Streptococcus pyogenes; S. pyogenes 0717): 0.008 µg/mL
MIC (Streptococcus pyogenes; S. pyogenes 0722): 0.008 µg/mL
MBC range [1, 2]: 32 to 1024 µg/mL
MIC range [1, 2]: 8 to 1024 µg/mL
MBC ([1]; K. pneumonia isolate no. 5427): 16 µg/mL (≈ 26.5 µM)
MIC ([1]; K. pneumonia isolate no. 5427): 4 µg/mL (≈ 6.61 µM)
MBC ([1]; K. pneumonia isolate no. 5436): 1020 µg/mL (≈ 1690 µM)
MIC ([1]; K. pneumonia isolate no. 5436): 1020 µg/mL (≈ 1690 µM)
